Measurements from ChEMBL document CHEMBL1201862, “PubChem BioAssay data set” (2004).
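Grown in 96-well plates, cells were treated for 48 hours with each compound at five concentrations. Insufficient inhibition: endpoint recorded as highest concentration tested. GI50 marks 50% less growth.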 Activity calls are given as the source filed them. Cut-off read from the data, not from the text of the source: active = GI50 up to about 1.1 µM and inactive = higher.

Assays:
Test in all cases: DTP human tumour cell line panel, 48 h
[1] = test system: PC-3
[2] = test system: K562
[3] = test system: NCI/ADR-RES
[4] = test system: HT-29
[5] = test system: HCT-15
[6] = test system: HCC 2998
[7] = test system: SK-MEL-2
[8] = test system: MCF7
[9] = test system: OVCAR-3
[10] = test system: SN12C
[11] = test system: LOX IMVI
[12] = test system: ACHN
[13] = test system: MDA-MB-231
[14] = test system: HOP-62
[15] = test system: CAKI-1
[16] = test system: EKVX
[17] = test system: Hs-578T
[18] = test system: MDA-N

Compound	GI50 [1]	GI50 [2]	GI50 [3]	GI50 [4]	GI50 [5]	GI50 [6]	GI50 [7]	GI50 [8]	GI50 [9]	GI50 [10]	GI50 [11]	GI50 [12]	GI50 [13]	GI50 [14]	GI50 [15]	GI50 [16]	GI50 [17]	GI50 [18]
O=S(=O)(OI(O)CC(F)(F)F)C(F)(F)F	> 100 µM (inactive)	> 100 µM (inactive)	> 100 µM (inactive)	> 100 µM (inactive)	> 100 µM	> 100 µM (inactive)	> 100 µM (inactive)	> 100 µM (inactive)	> 100 µM (inactive)	> 100 µM (inactive)	> 100 µM (inactive)	> 100 µM (inactive)	> 100 µM (inactive)	> 100 µM (inactive)	> 100 µM (inactive)	> 100 µM (inactive)	–	–
Brc1sc(Br)c2c1[C@H](Br)C[C@@H]2Br	–	39.4 µM (inactive)	23 µM (inactive)	> 100 µM (inactive)	28.4 µM	–	24.6 µM (inactive)	29.6 µM (inactive)	41.9 µM (inactive)	31.1 µM (inactive)	17.4 µM (inactive)	32.8 µM (inactive)	31.1 µM (inactive)	64.9 µM (inactive)	33.8 µM (inactive)	> 100 µM (inactive)	26.3 µM (inactive)	38.1 µM (inactive)
CCC(=O)ONC(=O)Cn1ccc([N+](=O)[O-])n1	> 100 µM (inactive)	> 100 µM (inactive)	> 100 µM (inactive)	> 100 µM (inactive)	–	> 100 µM (inactive)	–	> 100 µM (inactive)	> 100 µM (inactive)	> 100 µM (inactive)	> 100 µM (inactive)	> 100 µM (inactive)	> 100 µM (inactive)	> 100 µM (inactive)	> 100 µM (inactive)	> 100 µM (inactive)	> 100 µM (inactive)	> 100 µM (inactive)
Cc1c2c(n(CCc3ccccc3)c1C)N(C)N=C(C#N)S2(=O)=O	> 100 µM (inactive)	> 10 µM (inactive)	> 100 µM (inactive)	> 100 µM (inactive)	> 100 µM	> 100 µM (inactive)	> 100 µM (inactive)	> 100 µM (inactive)	> 100 µM (inactive)	> 100 µM (inactive)	–	> 100 µM (inactive)	> 100 µM (inactive)	> 100 µM (inactive)	> 100 µM (inactive)	> 100 µM (inactive)	–	> 100 µM (inactive)
CC(=O)NC(C)(C)C1CC=C(C)CC1 (stereo not given)	> 100 µM (inactive)	> 100 µM (inactive)	> 100 µM (inactive)	> 100 µM (inactive)	> 100 µM	> 100 µM (inactive)	–	> 100 µM (inactive)	> 100 µM (inactive)	> 100 µM (inactive)	> 100 µM (inactive)	> 100 µM (inactive)	> 100 µM (inactive)	> 100 µM (inactive)	> 100 µM (inactive)	> 100 µM (inactive)	> 100 µM (inactive)	> 100 µM (inactive)
[N-]=[N+]=NCc1cccc(Nc2cc(=O)[nH]c(=O)[nH]2)c1	–	> 100 µM (inactive)	> 100 µM (inactive)	> 100 µM (inactive)	> 100 µM	> 100 µM (inactive)	> 100 µM (inactive)	> 100 µM (inactive)	> 100 µM (inactive)	> 100 µM (inactive)	> 100 µM (inactive)	> 100 µM (inactive)	–	> 100 µM (inactive)	> 100 µM (inactive)	> 100 µM (inactive)	> 100 µM (inactive)	> 100 µM (inactive)
O=C(O)C1C(Br)(c2ccccc2)C1(Br)c1ccccc1 (stereo not given)	36.5 µM (inactive)	20.1 µM (inactive)	52.4 µM (inactive)	20.7 µM (inactive)	18.5 µM	22.6 µM (inactive)	37.5 µM (inactive)	22 µM (inactive)	50.4 µM (inactive)	34.4 µM (inactive)	22.2 µM (inactive)	14.3 µM (inactive)	39.7 µM (inactive)	37 µM (inactive)	23.9 µM (inactive)	86.7 µM (inactive)	37.8 µM (inactive)	–
Cn1nc(C(=O)N2CC(CCl)c3c2cc(N)c2ccccc32)cc1NC(=O)Nc1cc(C(=O)N2CC(CCl)c3c2cc(N)c2ccccc32)nn1C (stereo not given)	0.165 µM (active)	0.231 µM (active)	> 100 µM (inactive)	0.0215 µM (active)	44.3 µM	1.21 µM (inactive)	0.13 µM (active)	–	0.201 µM (active)	0.0323 µM (active)	< 0.01 µM (active)	0.508 µM (active)	0.243 µM (active)	0.682 µM (active)	0.254 µM (active)	29 µM (inactive)	–	0.157 µM (active)
Cc1cc(NC2=NCCO2)c2c(c1C)CCCC2	–	–	18.1 µM (inactive)	13.9 µM (inactive)	16.7 µM	15.2 µM (inactive)	–	14.8 µM (inactive)	–	22.2 µM (inactive)	–	10.1 µM (inactive)	24 µM (inactive)	13.3 µM (inactive)	–	23.6 µM (inactive)	10.8 µM (inactive)	–
C(=N\c1ccc2c(c1)Cc1ccccc1-2)/c1ccccn1	38.7 µM (inactive)	30.9 µM (inactive)	91.2 µM (inactive)	63.1 µM (inactive)	48.3 µM	–	43.3 µM (inactive)	–	61.7 µM (inactive)	28.4 µM (inactive)	57.1 µM (inactive)	> 100 µM (inactive)	68.2 µM (inactive)	> 100 µM (inactive)	> 100 µM (inactive)	28.8 µM (inactive)	92.3 µM (inactive)	28.9 µM (inactive)
COC(=O)Cc1cc(O)c(C/C=C(\C)CC/C=C(\C)C(O)C(=O)C=C(C)C)cc1O (stereo not given)	21.9 µM (inactive)	15.6 µM (inactive)	22.5 µM (inactive)	27.4 µM (inactive)	–	–	24.6 µM (inactive)	32.1 µM (inactive)	19.4 µM (inactive)	22.4 µM (inactive)	–	24.9 µM (inactive)	34.7 µM (inactive)	19.6 µM (inactive)	–	23.6 µM (inactive)	41 µM (inactive)	35.5 µM (inactive)
CC(C)C1=CC23CCC4C(C)(C(=O)O)CCCC4(C)C2CC1C1C(=O)N(c2ccc(Cc4ccc(N5C(=O)C6C7CC8C9(C)CCCC(C)(C(=O)O)C9CCC8(C=C7C(C)C)C6C5=O)cc4)cc2)C(=O)C13 (stereo not given)	3.78 µM (inactive)	7.87 µM (inactive)	–	3.17 µM (inactive)	10.6 µM	10.1 µM (inactive)	12 µM (inactive)	5.13 µM (inactive)	10.7 µM (inactive)	10.1 µM (inactive)	–	5.41 µM (inactive)	15.7 µM (inactive)	11.6 µM (inactive)	–	6.58 µM (inactive)	10.7 µM (inactive)	8.93 µM (inactive)
CCCCN=C(OC1C=CCCC1)SC (stereo not given)	> 100 µM (inactive)	> 100 µM (inactive)	> 100 µM (inactive)	> 100 µM (inactive)	> 100 µM	> 100 µM (inactive)	–	> 100 µM (inactive)	> 100 µM (inactive)	> 100 µM (inactive)	–	> 100 µM (inactive)	> 100 µM (inactive)	> 100 µM (inactive)	–	> 100 µM (inactive)	–	> 100 µM (inactive)
